Data taken from publication PMC3907537, “Evaluation of the Endothelin Receptor Antagonists Ambrisentan, Bosentan, Macitentan, and Sitaxsentan as Hepatobiliary Transporter Inhibitors and Substrates in Sandwich-Cultured Human Hepatocytes” (PLoS ONE, 2014).
Read-outs that look alike come from different tables or passages of the source.

Biological target: T1, OATP1B1 (Homo sapiens, UniProt Q9Y6L6)
T1 construct: host or cells: CHO
T1 sequence (Q9Y6L6 1-691): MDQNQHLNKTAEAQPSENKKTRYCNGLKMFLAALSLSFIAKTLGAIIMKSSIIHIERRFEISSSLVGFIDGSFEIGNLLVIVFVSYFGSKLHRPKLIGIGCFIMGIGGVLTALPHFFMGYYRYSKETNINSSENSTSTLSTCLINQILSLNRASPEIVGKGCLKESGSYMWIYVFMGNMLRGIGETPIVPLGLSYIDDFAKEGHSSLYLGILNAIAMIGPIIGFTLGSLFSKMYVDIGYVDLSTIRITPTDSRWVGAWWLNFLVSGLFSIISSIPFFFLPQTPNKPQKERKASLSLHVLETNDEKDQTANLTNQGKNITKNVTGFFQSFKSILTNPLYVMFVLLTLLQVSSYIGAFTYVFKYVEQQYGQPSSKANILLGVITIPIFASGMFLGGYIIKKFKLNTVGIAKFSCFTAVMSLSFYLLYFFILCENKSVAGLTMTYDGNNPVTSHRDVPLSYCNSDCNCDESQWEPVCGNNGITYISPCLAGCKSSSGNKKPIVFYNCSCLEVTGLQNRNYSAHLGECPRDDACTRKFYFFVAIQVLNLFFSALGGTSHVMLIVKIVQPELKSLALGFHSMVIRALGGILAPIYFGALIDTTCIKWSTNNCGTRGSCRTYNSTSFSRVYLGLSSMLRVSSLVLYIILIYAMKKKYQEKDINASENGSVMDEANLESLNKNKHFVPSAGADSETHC
Experiment: OATP1B1 inhibition, Fluo 3 uptake in transfected CHO cells
Format: cell-based
From the text: Chinese Hamster Ovary (CHO) cells were obtained from Professor B. Stieger’s laboratory at University of Zurich, Zurich, Switzerland. Madin-Darby Canine Kidney strain II (MDCKII) cells were obtained from Nederlands Kanker Instituut (NKI), Amsterdam, Netherlands. NTCP-CHO cells, BSEP and MRP2 membrane vesicles were developed and validated at Solvo Biotechnology, Budaors, Hungary.
CHO cells, either wild type or transfected with the genes encoding human NTCP, OATP1B1 and OATP1B3, were maintained in Dulbecco’s Modification of Eagle’s Medium (DMEM) containing 1,000 mg/L D-glucose, L-glutamine, 25 mM HEPES buffer, 110 mg/L sodium pyruvate, 1% Penicillin/Streptomycin, 10% fetal bovine serum (FBS), 0.05 mg/mL L proline and 0.5 mg/mL of geneticin G-418. Cells were maintained in incubators set at 37°C, 90% humidity and 5% CO2. OATP1B1 and OATP1B3 over-expressing cells were seeded in BioCoat Poly-D-Lysine coated 96-well black cell culture plates with clear bottoms at a density of 1×10^5 cells/well. Sodium butyrate (10 mM) was added to the OATP1B1 and OATP1B3 cells once seeded to increase the protein expression level and the cells were grown to confluence overnight. The assay buffer contained 142 mM NaCl, 5 mM KCl, 1 mM KH2PO4, 1.2 mM MgSO4, 1.5 mM CaCl2, 5 mM Glucose and 12.5 mM HEPES (pH 7.4). After removal of the media and before adding test compounds, the cells were washed twice with 37°C assay buffer followed by a 0.5 h pre-incubation with assay buffer. […] Wells were analyzed for Fluo 3 fluorescence at an excitation of 485 nm and emission of 530 nm. Inhibition of NTCP was studied using similar conditions to those described for OATP1B1 and OATP1B3 except that inhibition of the uptake ^3H taurocholate into transfected CHO cells was monitored using radioactive scintillation counting.
All assays were performed in duplicate. […] IC50 values were calculated using non-linear fitting of % inhibition versus concentration to a sigmoidal curve with a variable Hill Coefficient using GraphPad Prism 5 (GraphPad Software Inc., San Diego, CA).

[1] = CHO cells, Fluo 3, mean ± SD of 3 independent studies in duplicate, tested 0.14–100 µM, read-out: OATP1B1 IC50

| IC50 [µM] | IC50 [1] [µM] | Compound |
| --- | --- | --- |
| 47 ± 21.3 |  | COC(c1ccccc1)(c1ccccc1)[C@H](Oc1nc(C)cc(C)n1)C(=O)O [ambrisentan] |
|  | 5 ± 2 | COc1ccccc1Oc1c(NS(=O)(=O)c2ccc(C(C)(C)C)cc2)nc(-c2ncccn2)nc1OCCO [bosentan] |
|  | 2 ± 0.3 | CCCNS(=O)(=O)Nc1ncnc(OCCOc2ncc(Br)cn2)c1-c1ccc(Br)cc1 [macitentan] |
